Results from ChEMBL document CHEMBL1141079, “Cytostatic 6-arylpurine nucleosides. 6. SAR in anti-HCV and cytostatic activity of extended series of 6-hetarylpurine ribonucleosides” (J Med Chem, 2005).
pIC50: −log10 of the molar value.

Assays:
L1210 [1] = experiment: In vitro inhibitory concentration against mouse leukemia L1210 cell line; n.a. is not active; type: functional, cell-based
Homo sapiens = organism: Homo sapiens; experiment: Cytotoxic concentration required to reduce the cellular rRNA level in hepatitis C virus replicon cells
CCRF-CEM = experiment: In vitro inhibitory concentration against human T lymphoblastoid CCRF-CEM cell line; type: functional, cell-based; conditions: for IC50: ccrf-cem; for pIC50: Homo sapiens, CCRF-CEM, read-out: IC50
HL-60 [2] = experiment: In vitro inhibitory concentration against human promyelocytic leukemia HL60 cell line; n.a. is not active; type: functional, cell-based
Hepatitis C virus = experiment: Effective concentration required to reduce Hepatitis C virus; type: functional, Hepacivirus hominis
HeLa [3] = experiment: In vitro inhibitory concentration against human cervix carcinoma HeLaS3 cell line; n.a. is not active; type: functional, cell-based
HL-60 [4] = experiment: In vitro inhibitory concentration against human promyelocytic leukemia HL60 cell line; type: functional, cell-based
L1210 [5] = experiment: In vitro inhibitory concentration against mouse leukemia L1210 cell line; type: functional, cell-based
HeLa [6] = experiment: In vitro inhibitory concentration against human cervix carcinoma HeLaS3 cell line; type: functional, cell-based

| SMILES | IC50 (L1210 [1]) | IC50 (CCRF-CEM) | IC50 (HL-60 [2]) | EC90 (Hepatitis C virus) [µM] | IC50 (HeLa [3]) | pIC50 (HL-60 [4]) | pIC50 (L1210 [5]) | pIC50 (CCRF-CEM) | pIC50 (HeLa [6]) | CC50 (Homo sapiens) [µM] |
| --- | --- | --- | --- | --- | --- | --- | --- | --- | --- | --- |
| Cn1nccc1-c1ncnc2c1ncn2C1O[C@H](CO)[C@@H](O)[C@H]1O (stereo partly drawn) | Not Active | Not Active | Not Active | > 100 | Not Active |  |  |  |  | > 100 |
| Cc1csc(-c2ncnc3c2ncn3C2O[C@H](CO)[C@@H](O)[C@H]2O)n1 (stereo partly drawn) | Not Active |  | Not Active | > 100 | Not Active |  |  | 5.22 |  | > 100 |
| Cc1cc(-c2ncnc3c2ncn3C2O[C@H](CO)[C@@H](O)[C@H]2O)on1 (stereo partly drawn) | Not Active | Not Active | Not Active | > 100 | Not Active |  |  |  |  | > 100 |
| OC[C@H]1OC(n2cnc3c(-c4cc5ccccc5o4)ncnc32)[C@H](O)[C@@H]1O (stereo partly drawn) | Not Active |  | Not Active | > 100 | Not Active |  |  | 4.82 |  | > 100 |
| OC[C@H]1OC(n2cnc3c(-c4ccsc4)ncnc32)[C@H](O)[C@@H]1O (stereo partly drawn) |  |  |  | 0.82 | Not Active | 5.42 | 4.97 | 5.79 |  | < 0.1 |
| OC[C@H]1OC(n2cnc3c(-c4ccccn4)ncnc32)[C@H](O)[C@@H]1O (stereo partly drawn) |  |  |  | 6 |  | 5.25 | 5.37 | 6.05 | 5.01 | 2.7 |
| OC[C@H]1O[C@@H](n2cnc3c(-c4cccs4)ncnc32)[C@H](O)[C@@H]1O |  |  |  | 0.7 |  | 5.31 | 6.43 | 6.22 | 4.60 | 1.1 |
| OC[C@H]1OC(n2cnc3c(-c4nccs4)ncnc32)[C@H](O)[C@@H]1O (stereo partly drawn) |  |  |  | 6 | Not Active | 5.20 | 4.80 | 5.56 |  | 6.7 |
| Cc1csc(-c2ncnc3c2ncn3C2O[C@H](CO)[C@@H](O)[C@H]2O)c1 (stereo partly drawn) | Not Active |  |  | 40.7 |  | 5.25 |  | 5.54 | 4.94 | 7 |
| C[C@@]1(O)[C@H](O)[C@@H](CO)O[C@H]1n1cnc2c(N)ncnc21 |  |  |  | 1.14 |  |  |  |  |  | 15 |

More lines, main results first:

| IC50 (L1210 [1]) | IC50 (CCRF-CEM) | IC50 (HL-60 [2]) | EC90 (Hepatitis C virus) [µM] | IC50 (HeLa [3]) | pIC50 (HL-60 [4]) | pIC50 (L1210 [5]) | pIC50 (CCRF-CEM) | pIC50 (HeLa [6]) | SMILES | CC50 (Homo sapiens) [µM] |
| --- | --- | --- | --- | --- | --- | --- | --- | --- | --- | --- |
|  |  |  | 0.4 |  | 5.57 | 5.70 | 6.22 | 4.60 | OC[C@H]1OC(n2cnc3c(-c4ccco4)ncnc32)[C@H](O)[C@@H]1O (stereo partly drawn) | 1.6 |
| Not Active |  |  | > 100 | Not Active | 4.80 |  | 5.70 |  | Cn1cccc1-c1ncnc2c1ncn2C1O[C@H](CO)[C@@H](O)[C@H]1O (stereo partly drawn) | > 100 |
| Not Active |  | Not Active | > 100 |  |  |  |  |  | OC[C@H]1OC(n2cnc3c(-c4ccc(Cl)cc4)ncnc32)[C@H](O)[C@@H]1O (stereo partly drawn) | > 100 |
|  |  |  | 16.7 |  | 5.20 |  |  |  | OC[C@H]1O[C@@H](n2cnc3c(-c4ccccc4)ncnc32)[C@H](O)[C@@H]1O | 8.3 |
| Not Active |  |  | 1.4 | Not Active | 5.48 |  | 5.78 |  | OC[C@H]1OC(n2cnc3c(-c4ccoc4)ncnc32)[C@H](O)[C@@H]1O (stereo partly drawn) | 6.9 |
|  |  |  | 2.6 |  | 5.12 | 5.30 | 5.90 | 4.49 | OC[C@H]1OC(n2cnc3c(-c4ccc(O)cc4)ncnc32)[C@H](O)[C@@H]1O (stereo partly drawn) | 5.2 |
|  |  |  | > 100 |  | 5.12 |  |  |  | COc1ccc(-c2ncnc3c2ncn3C2O[C@H](CO)[C@@H](O)[C@H]2O)cc1 (stereo partly drawn) | < 10 |
| Not Active |  |  | > 100 |  | 5.35 |  | 5.60 | < 4.70 | Cc1ccsc1-c1ncnc2c1ncn2C1O[C@H](CO)[C@@H](O)[C@H]1O (stereo partly drawn) | > 100 |
|  |  |  | 49.5 |  | 5.20 |  | 6.15 | 5.57 | OC[C@H]1OC(n2cnc3c(-c4ccc(F)cc4)ncnc32)[C@H](O)[C@@H]1O (stereo partly drawn) | 9.2 |
|  |  |  | 0.14 | Not Active | 5.49 | 4.76 | 5.99 |  | OC[C@H]1OC(n2cnc3c(-c4cc[nH]c4)ncnc32)[C@H](O)[C@@H]1O (stereo partly drawn) | < 0.1 |
|  |  |  | 0.8 | Not Active | 5.93 | 4.70 | 6.12 |  | OC[C@H]1OC(n2cnc3c(-c4cc[nH]n4)ncnc32)[C@H](O)[C@@H]1O (stereo partly drawn) | 0.6 |
